# Columns and labels:
# Enterococcus sp. = assay: in vitro antibacterial evaluation, MIC by broth dilution; assay type: cell-based; conditions: broth dilution, 18 hours at 35° C.
# Outline: (§1)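 Broth dilution per NCCLS standard M7-A2 in Muller-Hinton II […], with an inoculum of 5×10^5 CFU/mL and antibiotic spanning 64-0.06 μg/mL. The MIC is the lowest concentration that inhibits growth of the organism.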
# Staphylococcus sp. = assay: as above; assay type: cell-based; conditions: broth dilution, 18 hours at 35° C.
# Outline: as §1
# Streptococcus sp. = assay: as above; assay type: cell-based; conditions: broth dilution, 18 hours at 35° C.
# Outline: as §1
# [1] = tested on: Staphylococcus aureus-SMITH (GC 4543); assay: acute lethal infection in mice; assay type: in vivo; conditions: acute lethal infection, female CD-1 mice, intraperitoneal challenge, intravenous 30 min. after infection, 7 day survival
# Outline: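 Survival at 7 days, pooled from three independent tests, yields ED50 values. Treatment is intravenous, 30 min after ip infection of female CD-1 mice, using an inoculum lethal to untreated controls within 24-48 hr.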
# [2] = anatomic pathology (histopathology of heart and kidney) in mice; assay type: in vivo; conditions: CD-1 mice, 20 mg/kg intravenously daily for 9 days, necropsy day 10, microscopic histopathology
# Description: Samples of tissues from necropsied mice were formalin-fixed, paraffin-embedded, sectioned, stained with hematoxylin and eosin, and examined microscopically. Histopathologic findings were recorded. These findings were subjectively graded on a scale corresponding to slight, mild, moderate, marked and severe as compared to untreated controls.
# Escherichia coli = assay: in vitro antibacterial evaluation, MIC by broth dilution; assay type: cell-based; conditions: 18 hours at 35° C.
compound,measurement,setting,value
"CC(c1ccccc1)C1NC(=O)CNC(=O)C(CO)NC(=O)C(CC2CNC(=N)N2C2OC(CO)C(O)C(O)C2O)NC(=O)C(CC2CNC(=N)N2)NC(=O)C(Cc2ccc(OC3OC(CO)C(OC4OC5COC6(OC5C(O)C4O)C4CC5CC(C4)CC6C5)C(O)C3O)cc2)NC1=O (stereo not drawn) [Example 219, Cyclo[3-(2-iminoimidazolidin-4-yl)alanyl-3-(3-hexopyranosyl-2-iminoimidazolidin-4-yl)-alanylserylglycyl-β-methylphenylalanyl-O-[4-O-[4,6-O-(2-adamantylidene)hexopyranosyl]-hexopyranosyl]tyrosyl]]",MIC Enterococcus avium (GC 4558),Enterococcus sp.,4 µg/mL
same,MIC Enterococcus faecalis (ATCC 29212),Enterococcus sp.,16 µg/mL
same,MIC Enterococcus faecalis (GC 2242),Enterococcus sp.,8 µg/mL
same,MIC Enterococcus faecalis (GC 2691),Enterococcus sp.,8 µg/mL
same,MIC Enterococcus faecalis (GC 3059),Enterococcus sp.,16 µg/mL
same,MIC Enterococcus faecalis (GC 4552),Enterococcus sp.,8 µg/mL
same,MIC Enterococcus faecalis (GC 4553),Enterococcus sp.,8 µg/mL
same,MIC Enterococcus faecalis (GC 4554),Enterococcus sp.,8 µg/mL
same,MIC Enterococcus faecalis (GC 6189),Enterococcus sp.,8 µg/mL
same,MIC Enterococcus faecium (GC 2243),Enterococcus sp.,8 µg/mL
same,MIC Enterococcus faecium (GC 4556),Enterococcus sp.,8 µg/mL
same,MIC Enterococcus faecium (GC 4557),Enterococcus sp.,4 µg/mL
same,MIC Enterococcus faecalis (ATCC 29212),"Enterococcus sp.; inoculum 5×10^5 CFU/mL, strain ATCC 29212",16 µg/mL
same,MIC Enterococcus faecalis (GC 2242),"Enterococcus sp.; inoculum 5×10^5 CFU/mL, strain GC 2242",8 µg/mL
same,MIC Enterococcus faecium (GC 2243),"Enterococcus sp.; inoculum 5×10^5 CFU/mL, strain GC 2243",8 µg/mL
same,MIC Enterococcus faecalis (GC 2691),"Enterococcus sp.; inoculum 5×10^5 CFU/mL, strain GC 2691",8 µg/mL
same,MIC Enterococcus faecalis (GC 3059),"Enterococcus sp.; inoculum 5×10^5 CFU/mL, strain GC 3059",16 µg/mL
same,MIC Enterococcus faecalis (GC 4552),"Enterococcus sp.; inoculum 5×10^5 CFU/mL, strain GC 4552",8 µg/mL
same,MIC Enterococcus faecalis (GC 4553),"Enterococcus sp.; inoculum 5×10^5 CFU/mL, strain GC 4553",8 µg/mL
same,MIC Enterococcus faecalis (GC 4554),"Enterococcus sp.; inoculum 5×10^5 CFU/mL, strain GC 4554",8 µg/mL
same,MIC Enterococcus faecium (GC 4556),"Enterococcus sp.; inoculum 5×10^5 CFU/mL, strain GC 4556",8 µg/mL
same,MIC Enterococcus faecium (GC 4557),"Enterococcus sp.; inoculum 5×10^5 CFU/mL, strain GC 4557",4 µg/mL
same,MIC Enterococcus avium (GC 4558),"Enterococcus sp.; inoculum 5×10^5 CFU/mL, strain GC 4558",4 µg/mL
same,MIC Enterococcus faecalis (GC 6189),"Enterococcus sp.; inoculum 5×10^5 CFU/mL, strain GC 6189",8 µg/mL
same,MIC Staphylococcus aureus (ATCC 29213),Staphylococcus sp.; strain ATCC 29213,4 µg/mL
same,MIC Staphylococcus aureus (GC 1131),Staphylococcus sp.; strain GC 1131,4 µg/mL
same,MIC Staphylococcus aureus (GC 3051),Staphylococcus sp.; strain GC 3051,2 µg/mL
same,MIC Staphylococcus aureus (GC 3053),Staphylococcus sp.; strain GC 3053,2 µg/mL
same,MIC Staphylococcus aureus (GC 4541),Staphylococcus sp.; strain GC 4541,2 µg/mL
same,MIC Staphylococcus aureus (GC 4542),Staphylococcus sp.; strain GC 4542,2 µg/mL
same,MIC Staphylococcus aureus-SMITH (GC 4543),Staphylococcus sp.; strain GC 4543,2 µg/mL
same,MIC Staphylococcus aureus (GC 4544),Staphylococcus sp.; strain GC 4544,8 µg/mL
same,MIC Staphylococcus aureus (GC 4545),Staphylococcus sp.; strain GC 4545,2 µg/mL
same,MIC Staphylococcus haemolyticus (GC 4546),Staphylococcus sp.; strain GC 4546,2 µg/mL
same,MIC Coagulase Negative Staphylococcus (GC 4547),Staphylococcus sp.; strain GC 4547,2 µg/mL
same,MIC Coagulase Negative Staphylococcus (GC 4548),Staphylococcus sp.; strain GC 4548,2 µg/mL
same,MIC Coagulase Negative Staphylococcus (GC 4549),Staphylococcus sp.; strain GC 4549,2 µg/mL
same,MIC Coagulase Negative Staphylococcus (GC 4551),Staphylococcus sp.; strain GC 4551,4 µg/mL
same,MIC Coagulase Negative Staphylococcus (GC 6257),Staphylococcus sp.; strain GC 6257,1 µg/mL
same,MIC Streptococcus agalactiae (GC 4564),Streptococcus sp.,2 µg/mL
same,MIC Streptococcus pneumoniae (ATCC 6301),Streptococcus sp.,0.5 µg/mL
same,MIC Streptococcus pneumoniae (GC 1894),Streptococcus sp.,1 µg/mL
same,MIC Streptococcus pneumoniae (GC 4565),Streptococcus sp.,2 µg/mL
same,MIC Streptococcus pyogenes (GC 4563),Streptococcus sp.,2 µg/mL
same,MIC Streptococcus pneumoniae (ATCC 6301),"Streptococcus sp.; inoculum 5×10^5 CFU/mL, strain ATCC 6301",0.5 µg/mL
same,MIC Streptococcus pneumoniae (GC 1894),"Streptococcus sp.; inoculum 5×10^5 CFU/mL, strain GC 1894",1 µg/mL
same,MIC Streptococcus pyogenes (GC 4563),"Streptococcus sp.; inoculum 5×10^5 CFU/mL, strain GC 4563",2 µg/mL
same,MIC Streptococcus agalactiae (GC 4564),"Streptococcus sp.; inoculum 5×10^5 CFU/mL, strain GC 4564",2 µg/mL
same,MIC Streptococcus pneumoniae (GC 4565),"Streptococcus sp.; inoculum 5×10^5 CFU/mL, strain GC 4565",2 µg/mL
same,"median effective dose (ED50), Staphylococcus aureus-SMITH (GC 4543)",[1],0.5 mg/kg
same,"Anatomical Pathology (Day 10), Heart",[2],0
same,"Anatomical Pathology (Day 10), Kidney",[2],+++
same,MIC Escherichia coli (ATCC 25922),Escherichia coli,64 µg/mL
same,MIC Escherichia coli (GC 4559),Escherichia coli,64 µg/mL
same,MIC Escherichia coli (GC 4560),Escherichia coli,4 µg/mL

# Source: US6914045B2, “Glycopeptide antibiotics” (Wyeth Holdings Corporation, priority 2001, dated 2005)
